We go through 7 molecules from patent US20240043404A1 (AbbVie Inc., priority 2009, published 2024).

This assay concerns RS4;11 cells. Briefly: RS4;11 cell viability assay (CellTiter Glo).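 Note: acute lymphoblastic leukemia line RS4,11, EC50 derived from percentage of viable cells after treatment relative to untreated controls, cell killing taken as a measure of Bcl-2 inhibition.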 The assay is classed as cell-based, human. The note with it: Homo sapiens, RS4-11, 48 h, 50,000 cells per well, 10% human serum, 48 hours; read-out: RS4; 11 EC50 Values.
Experimental: The acute lymphoblastic leukemia (ALL) cell line RS4;11 was used as the primary human cell line to assess the cellular activity of Bcl-2 selective agents in vitro and their efficacy in vivo.
Cell cytotoxicity EC50 values were assessed using CellTiter Glo (Promega) according to the manufacturer's recommendations. The EC50 values were determined as a percentage of viable cells following treatment compared to the untreated control cells.
In the case of `CC1(C)CCC(CN2CCN(c3ccc(C(=O)NS(=O)(=O)c4cc(Cl)c(NCC5CCOCC5)c(C#N)c4)c(Oc4cnc5[nH]ccc5c4)c3)CC2)=C(c2ccc(Cl)cc2)C1` [Example 52, N-({3-chloro-5-cyano-4-[(tetrahydro-2H-pyran-4-ylmethyl)amino]phenyl}sulfonyl)-4-(4-{[2-(4-chlorophenyl)-4,4-dimethylcyclohex-1-en-1-yl]methyl}piperazin-1-yl)-2-(1H-pyrrolo[2,3-b]pyridin-5-yloxy)benzamide], the EC50 turned out to be 200 nM.
As to `CC1(C)CCC(c2ccc(Cl)cc2)=C(CN2CCN(c3ccc(C(=O)NS(=O)(=O)c4ccc(OCC5(F)CCOCC5)c([N+](=O)[O-])c4)c(Oc4cnc5[nH]ccc5c4)c3)CC2)C1` [Example 119, 4-(4-{[2-(4-chlorophenyl)-5,5-dimethylcyclohex-1-en-1-yl]methyl}piperazin-1-yl)-N-({4-[(4-fluorotetrahydro-2H-pyran-4-yl)methoxy]-3-nitrophenyl}sulfonyl)-2-(1H-pyrrolo[2,3-b]pyridin-5-yloxy)benzamide], the EC50 was determined as 11.4 nM.
Turning to `CC1(C)CCC(CN2CCN(c3ccc(C(=O)NS(=O)(=O)c4ccc(NCC5CCN(S(C)(=O)=O)C5)c([N+](=O)[O-])c4)c(Oc4cnc5[nH]ccc5c4)c3)CC2)=C(c2ccc(Cl)cc2)C1` (stereo not shown) [Example 152, 4-(4-{[2-(4-chlorophenyl)-4,4-dimethylcyclohex-1-en-1-yl]methyl}piperazin-1-yl)-N-{[4-({[1-(methylsulfonyl)pyrrolidin-3-yl]methyl}amino)-3-nitrophenyl]sulfonyl}-2-(1H-pyrrolo[2,3-b]pyridin-5-yloxy)benzamide], the EC50 was 20.4 nM.
Regarding `CC1(C)CCC(CN2CCN(c3ccc(C(=O)NS(=O)(=O)c4ccc(NCCCN(Cc5cncs5)C5CC5)c([N+](=O)[O-])c4)c(Oc4cnc5[nH]ccc5c4)c3)CC2)=C(c2ccc(Cl)cc2)C1` [Example 304, 4-(4-{[2-(4-chlorophenyl)-4,4-dimethylcyclohex-1-en-1-yl]methyl}piperazin-1-yl)-N-{[4-({3-[cyclopropyl(1,3-thiazol-5-ylmethyl)amino]propyl}amino)-3-nitrophenyl]sulfonyl}-2-(1H-pyrrolo[2,3-b]pyridin-5-yloxy)benzamide], the EC50 is 298 nM.
Turning to `COc1ccc(CNc2ccc(S(=O)(=O)NC(=O)c3ccc(N4CCN(CC5=C(c6ccc(Cl)cc6)CC(C)(C)CC5)CC4)cc3Oc3cnc4[nH]ccc4c3)cc2[N+](=O)[O-])cc1` [Example 174, 4-(4-{[2-(4-chlorophenyl)-4,4-dimethylcyclohex-1-en-1-yl]methyl}piperazin-1-yl)-N-({4-[(4-methoxybenzyl)amino]-3-nitrophenyl}sulfonyl)-2-(1H-pyrrolo[2,3-b]pyridin-5-yloxy)benzamide], the EC50 is 126 nM.
Take `CC1(C)CCC(CN2CCN(c3ccc(C(=O)NS(=O)(=O)c4ccc(OCC5(F)CCN(S(C)(=O)=O)CC5)c([N+](=O)[O-])c4)c(Oc4cnc5[nH]ccc5c4)c3)CC2)=C(c2ccc(Cl)cc2)C1` [Example 194, 4-(4-{[2-(4-chlorophenyl)-4,4-dimethylcyclohex-1-en-1-yl]methyl}piperazin-1-yl)-N-[(4-{[4-fluoro-1-(methylsulfonyl)piperidin-4-yl]methoxy}-3-nitrophenyl)sulfonyl]-2-(1H-pyrrolo[2,3-b]pyridin-5-yloxy)benzamide]: the EC50 came to 8.19 nM.
`CC1(C)CCC(CN2CCN(c3ccc(C(=O)NS(=O)(=O)c4cnc(OC[C@@H]5CN(CC#N)CCO5)c(Cl)c4)c(Oc4cnc5[nH]ccc5c4)c3)CC2)=C(c2ccc(Cl)cc2)C1` [Example 244, N-[(5-chloro-6-{[(2S)-4-(cyanomethyl)morpholin-2-yl]methoxy}pyridin-3-yl)sulfonyl]-4-(4-{[2-(4-chlorophenyl)-4,4-dimethylcyclohex-1-en-1-yl]methyl}piperazin-1-yl)-2-(1H-pyrrolo[2,3-b]pyridin-5-yloxy)benzamide]: the EC50 turned out to be 794 nM.
